# Residues, ends and D or L forms follow the SMILES beside them.
# Biological target: cAMP-dependent protein kinase (Homo sapiens, UniProt P17612)
# Assay: phosphorylation of chip-fixed substrate by kinase with [γ-32P]ATP, X-ray film detection
# Format: biochemical
# Details: substrate spotted on aldehyde coated slide glass, 10 units cAMP-dependent protein kinase, reaction one hour, sensitized 12~24 hours
# Procedure: First, kemptide (Promega, Madison, Wis.) or malic enzyme-kemptide fusion protein was fixed on a slid glass as a substrate. Particularly, kemptide was dissolved in kemptide solution (10% glycerol, 60% PBS, pH 7.5) at the concentration of 0.1 mg/ml and this substrate solution was integrated on the aldehyde coated slid glass by using a microarrayer [Affymetrix 417 Arrayer (Takara Shuzo, Japan)] with leaving 300 μm distance between spots (2500/1 cm^2). The malic enzyme-kemptide prepared in Example 1 was also integrated on the slid glass with leaving 300 μm distance between spots (2500/1 cm^2). At this time, the size of each spot was 50 μm. The biochip integrated with substrate as described above was fixed in a 30° C. humid chamber for one hour. The biochip prepared in Example 2 was washed three times with washing buffer (2 mM KH2PO4, 1 mM Na2HPO4, 200 mM NaCl, 3 mM KCl, pH 7.5) and then reaction between the substrate and kinase was induced on the chip. Particularly, the chip was washed with kinase buffer (50 mM Tris-HCl, 10 mM MgCl2, pH 7.5) once and then pre-incubation was performed in the kinase buffer supplemented with 100 μM of ATP. […] The reacted biochip was sensitized on X-ray film for 12˜24 hours and then phosphorylation by kinase was measured.
smiles,measurement,value
CC(C)C[C@H](NC(=O)[C@H](CO)NC(=O)[C@H](C)NC(=O)[C@H](CCCNC(=N)N)NC(=O)[C@H](CCCNC(=N)N)NC(=O)[C@@H](N)CC(C)C)C(=O)NCC(=O)O [kemptide] (H-LRRASLG-OH),phosphorylation by kinase (spot signal on X-ray film),spot signals were clearly confirmed
